# Results published in EP4699605A1, “USE OF NOVEL COMPOUND FOR TREATING INTRACTABLE DISEASES” (YJ Cerapeutics Inc., priority 2023, dated 2024).
# Experiments:
# ZO-1 and occludin = test: Urothelial tight junction proteins in bladder after SCI (Western blot, immunofluorescence); assay type: in vivo, Sprague-Dawley rats
# Text: When bladder dysfunction occurred due to spinal cord injury, cystitis, etc., a decrease in tight junction protein in the urothelium in contact with urine occurred, which increased the permeability of the bladder wall to introduce the harmful substances into the tissue, and caused the death of the urothelium serving as a barrier, and an increase in inflammatory response in the bladder. In order to determine what effect the compound YJ102 of the present disclosure had on these pathological processes, the expression of tight junction proteins ZO-1 and occludin was confirmed by Western blot analysis and immunofluorescence staining, and the introduction of neutrophils and macrophages into the bladder was confirmed by immunofluorescence staining. Specifically, the cut bladder tissue sections were frozen in liquid nitrogen, ground in a mortar and pestle to be completely lysed, and homogenized by adding Lysis Buffer [50 mM Tris-HCl (pH 7.4), 150 mM NaCl, 2 mM MgCl2, 0.1% NP40]. The homogenized tissue sections were transferred to a microcentrifuge tube, rock at 4°C for 20 minutes, and then centrifuged at 25,000 × g for 10 minutes. The supernatant was transferred to a new microcentrifuge, the protein concentrations were measured using a BCA kit, and then samples for Western blot were prepared by adding a 1X sample buffer and boiling for 5 minutes. For Western blot, the same amounts of proteins were loaded onto SDS-PAGE, electrophored, and then transferred to a nitrocellulose membrane, reacted with primary antibodies Occludin (Invitrogen), ZO-1 (Invitrogen), ED-1 (Serotec), and β-actin (Sigma), and then blotted with secondary antibodies. In addition, for immunofluorescence staining, 10 µm-thick bladder tissue sections were treated with primary antibodies ZO-1 (Invitrogen), Occludin (Invitrogen), MPO (DAKO), and ED-1 (Serotec), respectively, and reacted according to a manufacturer's protocol, and then color-developed with secondary antibodies (Jackson immunoresearh).
# Raw 264.7 = test: proNGF production in LPS-stimulated macrophage cell line; assay type: cell-based; details: Raw 264.7 stimulated with 1 µg/ml of LPS; YJ102 treated 30 minutes before LPS
# Description: (§1) In order to determine whether YJ102 affected the production of proNGF as a ligand of p75, the expression of proNGF in the bladder was confirmed by RT-PCR, Western blot analysis, and immunofluorescence staining. In addition, for further verification, a macrophage cell line Raw 264.7 (Korea Cell Line Bank, Seoul, Korea) was stimulated with 1 µg/ml of LPS, and the effect of YJ102 on the production of proNGF was investigated. At this time, YJ102 was dissolved in DMSO and treated 30 minutes before LPS treatment.
# [1] = system: p75 neurotrophin receptor; test: p75 expression in urothelium after SCI (RT-PCR, Western blot); assay type: in vivo, Sprague-Dawley rats; details: urothelium after spinal cord injury (days 1 and 7)
# Text: The effect of YJ102 on urothelial cell apoptosis in bladder tissue after spinal cord injury was confirmed by TUNEL staining, and the protein levels of cleaved caspase-3 indicating caspase-3 activation, and UPIII as a urothelial marker were confirmed by Western blot analysis using p75 (Promega), cleaved caspase-3 (Cell signaling technology), and UPIII (Abcam) as primary antibodies. In addition, in order to confirm whether the mechanism of apoptosis was caused by a p75 neurotrophin receptor, which was involved in urothelial apoptosis, the expression level of p75 was confirmed by RT-PCR, Western blot analysis, and immunofluorescence staining. For RT-PCR analysis, the obtained bladder tissue sections were frozen in liquid nitrogen, and ground in a mortar and pestle to be completely lysed, and then RNA was isolated using a TRIZOL Reagent (Invitrogen) according to a manual, and 20 µl of the total mixture was prepared by using 1 µg of total RNA, and cDNA was synthesized using MMLV reverse transcriptase (Invitrogen).
# proNGF = test: NGF/proNGF expression in bladder after SCI (RT-PCR, Western blot); assay type: in vivo, Sprague-Dawley rats; details: bladder tissue after spinal cord injury
# Description: as §1
# JMJD3 = test: Signaling pathway analysis in SNI model (Western blot): JMJD3 expression and activation; assay type: in vivo, Sprague-Dawley rats; details: 4 weeks after nerve injury
# Description: To determine through which signaling pathway YJ102 inhibited a neuroinflammatory response, there was analyzed increased expression and activation of histone demethylase JMJD3 and expression changes of factors associated with JAK/STAT3 pathway, mTOR pathway, and TRPM7-mediated pathway, which were known as important regulatory mechanisms and epigenetic regulators mediating the neuroinflammatory response, in the tissues of the SNI animal model 4 weeks after nerve injury.
# [2] = day 1 after spinal cord injury (SCI 1d), Western blot
smiles,measurement,setting,value
CCc1ccc(N(C(=O)COC)c2nc3cc(Cl)ccc3o2)cc1 [YJ102],reduction in Occludin in the urothelium,"ZO-1 and occludin; after spinal cord injury, immunofluorescence staining",inhibited
same,reduction of the amount of Occludin,ZO-1 and occludin; [2],significantly inhibited
same,reduction of the amount of ZO-1,ZO-1 and occludin; [2],significantly inhibited
same,mRNA and protein expression of proNGF,Raw 264.7,significantly inhibited
same,p75 expression,[1],significantly reduced
same,NGF mRNA expression,proNGF; RT-PCR,significantly inhibited
same,proNGF production,proNGF; Western blot,significantly inhibited
same,demethylation activation of H3K27Me3,JMJD3,significantly inhibited
same,expression of JMJD3,JMJD3,significantly inhibited
